#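 The concentration for 50% growth inhibition is given as GI50. TGI: concentration producing complete growth inhibition.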
# What was measured:
# Experiment in all cases: NCI-60 cell line screen, 384-well format
# [1] = test system: NCI-H460 NSCLC
# [2] = test system: EKVX NSCLC
# [3] = test system: NCI-H226 lung
# [4] = test system: MALME-3M melanoma
# [5] = test system: DU-145 prostate
# [6] = test system: NCI/ADR-RES ovarian
# [7] = test system: ACHN renal
# [8] = test system: OVCAR-4 ovarian
# [9] = test system: A549 NSCLC
# [10] = test system: UACC-257 melanoma
# [11] = test system: MDA-MB-468 breast
# [12] = test system: SR leukemia
# [13] = test system: SN12C renal
# [14] = test system: OVCAR-8 ovarian
# [15] = test system: HT29 colon
# [16] = test system: SK-OV-3 ovarian
# [17] = test system: HOP-62 NSCLC
# [18] = test system: OVCAR-5 ovarian
# [19] = test system: TK-10 renal
# [20] = test system: RPMI-8226 leukemia
# [21] = test system: MOLT-4 leukemia
# [22] = test system: HCC-2998 colon
# [23] = test system: RXF 393 renal
# [24] = test system: HCT-116 colon
# [25] = test system: HL-60(TB) leukemia
# [26] = test system: SF-295 CNS
# [27] = test system: MCF7 breast
# [28] = test system: SK-MEL-5 melanoma
# [29] = test system: UACC-62 melanoma
# [30] = test system: SF-268 CNS
# [31] = test system: PC-3 prostate
# [32] = test system: M14 melanoma
# [33] = test system: T-47D breast
# [34] = test system: LOX IMVI melanoma
# [35] = test system: MDA-MB-435 melanoma
# [36] = test system: HCT-15 colon
# [37] = test system: U251 glioblastoma
# [38] = test system: A498 renal
# [39] = test system: KM12 colon
# [40] = test system: HOP-92 NSCLC
# [41] = test system: HS 578T breast
# [42] = test system: SF-539 CNS
# [43] = test system: IGROV1 ovarian
# [44] = test system: BT-549 breast
# [45] = test system: MDA-MB-231 breast
# [46] = test system: NCI-H322M lung
# [47] = test system: NCI-H23 lung
# [48] = test system: SNB-19 CNS
# [49] = test system: NCI-H522 lung
# [50] = test system: SK-MEL-28 melanoma
# [51] = test system: OVCAR-3 ovarian
# [52] = test system: SNB-75 CNS
# [53] = test system: COLO 205 colon
# [54] = test system: CAKI-1 renal
# [55] = test system: K-562 leukemia
# [56] = test system: SW-620 colon
# [57] = test system: UO-31 renal
smiles,measurement,setting,value
CC(C)c1cc(C(=O)N2Cc3ccc(CN4CCN(C)CC4)cc3C2)c(O)cc1O,GI50,[1],0.0179 µM
same,TGI,[1],0.0436 µM
same,GI50,[2],0.0461 µM
same,TGI,[2],8.59 µM
same,GI50,[3],0.0758 µM
same,TGI,[3],0.838 µM
same,GI50,[4],0.0615 µM
same,TGI,[4],0.694 µM
same,GI50,[5],0.0303 µM
same,TGI,[5],0.0887 µM
same,GI50,[6],0.166 µM
same,TGI,[6],0.515 µM
same,GI50,[7],0.0594 µM
same,TGI,[7],2.84 µM
same,GI50,[8],0.0332 µM
same,TGI,[8],1.7 µM
same,GI50,[9],0.0641 µM
same,TGI,[9],16.8 µM
same,GI50,[10],0.186 µM
same,TGI,[10],5.19 µM
same,GI50,[11],0.0371 µM
same,TGI,[11],0.158 µM
same,GI50,[12],0.0138 µM
same,TGI,[12],0.0368 µM
same,GI50,[13],0.0244 µM
same,TGI,[13],0.125 µM
same,GI50,[14],0.0379 µM
same,TGI,[14],0.175 µM
same,GI50,[15],0.0405 µM
same,TGI,[15],11.3 µM
same,GI50,[16],0.0843 µM
same,TGI,[16],12.1 µM
same,GI50,[17],0.0474 µM
same,TGI,[17],0.357 µM
same,GI50,[18],0.0387 µM
same,TGI,[18],0.186 µM
same,GI50,[19],0.045 µM
same,TGI,[19],0.856 µM
same,GI50,[20],0.0403 µM
same,TGI,[20],0.156 µM
same,GI50,[21],0.0194 µM
same,TGI,[21],0.0357 µM
same,GI50,[22],0.0124 µM
same,TGI,[22],0.0317 µM
same,GI50,[23],0.0338 µM
same,TGI,[23],11.3 µM
same,GI50,[24],0.0576 µM
same,TGI,[24],11.7 µM
same,GI50,[25],0.0218 µM
same,TGI,[25],0.0417 µM
same,GI50,[26],0.0407 µM
same,TGI,[26],0.256 µM
same,GI50,[27],0.0379 µM
same,TGI,[27],11.1 µM
same,GI50,[28],0.0237 µM
same,TGI,[28],1.33 µM
same,GI50,[29],0.113 µM
same,TGI,[29],1.68 µM
same,GI50,[30],0.0711 µM
same,TGI,[30],16.2 µM
same,GI50,[31],0.0465 µM
same,TGI,[31],0.319 µM
same,GI50,[32],0.0479 µM
same,TGI,[32],2.69 µM
same,GI50,[33],0.172 µM
same,TGI,[33],11.6 µM
same,GI50,[34],0.0392 µM
same,TGI,[34],0.146 µM
same,GI50,[35],0.0353 µM
same,TGI,[35],10.5 µM
same,GI50,[36],0.0322 µM
same,TGI,[36],10.2 µM
same,GI50,[37],0.0343 µM
same,TGI,[37],0.0973 µM
same,GI50,[38],0.0822 µM
same,TGI,[38],11.3 µM
same,GI50,[39],0.0371 µM
same,TGI,[39],12.5 µM
same,GI50,[40],0.217 µM
same,TGI,[40],1.6 µM
same,GI50,[41],0.131 µM
same,TGI,[41],2.33 µM
same,GI50,[42],0.0404 µM
same,TGI,[42],10.4 µM
same,GI50,[43],0.0377 µM
same,TGI,[43],0.216 µM
same,GI50,[44],0.0321 µM
same,TGI,[44],0.528 µM
same,GI50,[45],0.142 µM
same,TGI,[45],0.775 µM
same,GI50,[46],0.0847 µM
same,TGI,[46],4.76 µM
same,GI50,[47],0.0382 µM
same,TGI,[47],13.3 µM
same,GI50,[48],0.0764 µM
same,TGI,[48],0.71 µM
same,GI50,[49],0.0206 µM
same,TGI,[49],0.0423 µM
same,GI50,[50],0.4 µM
same,TGI,[50],17.1 µM
same,GI50,[51],0.0343 µM
same,TGI,[51],0.0935 µM
same,GI50,[52],0.0525 µM
same,TGI,[52],11.6 µM
same,GI50,[53],0.0237 µM
same,TGI,[53],0.0629 µM
same,GI50,[54],0.342 µM
same,TGI,[54],17.3 µM
Cc1cc(-c2ncc(-c3cccnc3)cc2/C=C/c2ccccc2)cnc1-c1cccnc1,GI50,[1],1.93 µM
same,TGI,[1],3.46 µM
same,GI50,[2],3.15 µM
same,GI50,[4],2.53 µM
same,TGI,[4],6.85 µM
same,GI50,[5],1.81 µM
same,TGI,[5],3.55 µM
same,GI50,[6],2.19 µM
same,TGI,[6],5.42 µM
same,GI50,[7],3.79 µM
same,GI50,[8],2.75 µM
same,TGI,[8],9.25 µM
same,GI50,[9],3.33 µM
same,TGI,[9],> 100 µM
same,GI50,[10],6.52 µM
same,GI50,[11],3.34 µM
same,GI50,[55],3 µM
same,TGI,[55],32.2 µM
same,GI50,[14],2.41 µM
same,TGI,[14],> 100 µM
same,GI50,[15],3.69 µM
same,GI50,[16],3.17 µM
same,TGI,[16],11.3 µM
same,GI50,[17],1.85 µM
same,TGI,[17],4.11 µM
same,GI50,[19],3.24 µM
same,GI50,[20],0.62 µM
same,TGI,[20],2.37 µM
same,GI50,[21],1.13 µM
same,TGI,[21],2.34 µM
same,GI50,[25],1.32 µM
same,TGI,[25],2.59 µM
same,GI50,[28],1.12 µM
same,TGI,[28],2.57 µM
same,GI50,[29],2.16 µM
same,TGI,[29],7.5 µM
same,GI50,[30],3.68 µM
same,TGI,[30],15.3 µM
same,GI50,[31],2.04 µM
same,TGI,[31],4.58 µM
same,GI50,[32],3.76 µM
same,TGI,[32],12.6 µM
same,GI50,[33],1.93 µM
same,TGI,[33],8.06 µM
same,GI50,[34],2.22 µM
same,TGI,[34],5.08 µM
same,GI50,[35],6.49 µM
same,GI50,[56],3.93 µM
same,GI50,[36],3.54 µM
same,GI50,[37],3.8 µM
same,GI50,[38],2.78 µM
same,TGI,[38],9.16 µM
same,GI50,[39],3.15 µM
same,TGI,[39],12.1 µM
same,GI50,[41],1.6 µM
same,TGI,[41],3.56 µM
same,GI50,[42],3.76 µM
same,GI50,[43],3.72 µM
same,GI50,[44],2.32 µM
same,TGI,[44],9.63 µM
same,GI50,[45],4.15 µM
same,TGI,[45],22.5 µM
same,GI50,[46],2.29 µM
same,TGI,[46],5.49 µM
same,GI50,[48],3.82 µM
same,TGI,[48],19.6 µM
same,GI50,[49],2.02 µM
same,TGI,[49],5.12 µM
same,GI50,[51],2.37 µM
same,TGI,[51],5.95 µM
same,GI50,[52],3.07 µM
same,TGI,[52],16.7 µM
same,GI50,[53],6.06 µM
same,GI50,[57],2.99 µM
same,GI50,[54],3.04 µM
same,TGI,[54],21.4 µM

# From PubChem BioAssay (NCI)
